Molecular target: T1, Estrogen receptor (Homo sapiens, UniProt P03372)
T1 sequence (P03372 whole entry): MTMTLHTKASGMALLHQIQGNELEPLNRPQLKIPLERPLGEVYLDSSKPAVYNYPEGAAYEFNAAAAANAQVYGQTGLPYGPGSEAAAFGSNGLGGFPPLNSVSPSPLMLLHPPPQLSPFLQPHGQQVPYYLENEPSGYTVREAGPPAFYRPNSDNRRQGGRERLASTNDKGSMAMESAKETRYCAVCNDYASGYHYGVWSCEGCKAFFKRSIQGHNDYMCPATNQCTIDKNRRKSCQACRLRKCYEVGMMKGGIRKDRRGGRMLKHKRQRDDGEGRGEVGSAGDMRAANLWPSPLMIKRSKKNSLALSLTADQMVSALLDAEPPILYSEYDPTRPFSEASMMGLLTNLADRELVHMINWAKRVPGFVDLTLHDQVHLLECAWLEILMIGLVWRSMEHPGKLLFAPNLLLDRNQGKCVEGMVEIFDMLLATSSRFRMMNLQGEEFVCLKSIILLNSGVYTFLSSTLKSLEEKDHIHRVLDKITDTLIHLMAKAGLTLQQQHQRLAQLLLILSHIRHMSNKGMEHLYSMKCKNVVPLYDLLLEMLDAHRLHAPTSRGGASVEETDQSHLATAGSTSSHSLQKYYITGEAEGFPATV
Test: Binding constant for Estrogen receptor alpha

**Q.** `CC/C(=C(/CC)c1ccc(OCCCC(=O)NCc2ccc(-c3c4ccc(=O)cc-4oc4cc(O)ccc34)c(C(=O)O)c2)cc1)c1ccc(O)cc1` was tested. Which Kd did it give?
**A.** 5.8 nM

From ChEMBL document CHEMBL1135566, “Synthesis of a novel fluorescent probe for estrogen receptor” (Bioorg Med Chem Lett, 2002)
